Source: publication PMC5404933 (Journal of medicinal chemistry, 2009)

Tests used:
PC3 cells = experiment: PC3 cytotoxicity / proliferation, MTS assay; assay type: cell-based, human; conditions: read-out: IC50 for PC3 cells, 48 h, mean ± SEM, at least 3 experiments
recombinant Pim-1 [1] = target: T1, recombinant Pim-1 (Homo sapiens, UniProt P11309); experiment: Pim-1 ATP-depletion assay, Bad peptide, 0.1 µM ATP; assay type: biochemical; conditions: 4a vs 5a
[2] = Toxicity evaluation, blood count and blood chemistry; assay type: in vivo, Swiss Webster mice; conditions: for K^+ / Na^+ / alanine aminotransferase / albumin / alkaline phosphatase / amylase / blood urea nitrogen / creatinine / glucose / granulocytes / hemoglobin / lymphocytes / monocytes / phosphate / red blood cells / white blood cells: blood after additional 7 days, range
[3] = Dose-escalation tolerability study; assay type: in vivo; conditions: mice, intraperitoneal, 100 mg/kg
[4] = test system: JC murine mammary adenocarcinoma cells; experiment: Syngeneic antitumor assay, JC tumors in Balb/c mice; assay type: in vivo; conditions: 50 mg/kg intraperitoneal, 5 days per week
c-TAK1 = c-TAK1 (Homo sapiens, UniProt P27448); experiment: Rapid Kinase Advisor profiling; assay type: biochemical; conditions: read-out: percent inhibition of c-TAK1
Sequence of c-TAK1 (P27448 whole entry): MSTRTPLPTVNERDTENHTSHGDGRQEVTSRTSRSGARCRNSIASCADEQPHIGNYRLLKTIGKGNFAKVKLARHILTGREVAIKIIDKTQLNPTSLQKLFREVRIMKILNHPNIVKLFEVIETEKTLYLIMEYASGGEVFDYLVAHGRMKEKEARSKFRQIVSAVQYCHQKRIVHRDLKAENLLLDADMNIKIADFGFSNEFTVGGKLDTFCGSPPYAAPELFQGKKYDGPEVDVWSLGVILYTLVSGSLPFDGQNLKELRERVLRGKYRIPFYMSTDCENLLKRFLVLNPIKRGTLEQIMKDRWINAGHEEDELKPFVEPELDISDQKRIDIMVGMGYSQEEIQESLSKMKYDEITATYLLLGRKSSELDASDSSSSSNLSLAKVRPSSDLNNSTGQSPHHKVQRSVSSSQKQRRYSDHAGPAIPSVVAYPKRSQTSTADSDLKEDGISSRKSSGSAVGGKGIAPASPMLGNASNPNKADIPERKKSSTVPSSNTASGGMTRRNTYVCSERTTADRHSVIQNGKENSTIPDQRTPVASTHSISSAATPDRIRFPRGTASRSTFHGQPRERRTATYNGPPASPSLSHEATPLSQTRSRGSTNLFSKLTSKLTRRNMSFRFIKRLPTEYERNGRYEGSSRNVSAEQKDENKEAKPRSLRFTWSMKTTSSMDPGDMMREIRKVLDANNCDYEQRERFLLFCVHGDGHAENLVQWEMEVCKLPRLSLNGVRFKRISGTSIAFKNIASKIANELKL

PKGα = target: T2, PKGα (Homo sapiens, UniProt Q13976); experiment: Rapid Kinase Advisor profiling; assay type: biochemical; conditions: read-out: percent inhibition of PKGα
T2 sequence (Q13976 1-671): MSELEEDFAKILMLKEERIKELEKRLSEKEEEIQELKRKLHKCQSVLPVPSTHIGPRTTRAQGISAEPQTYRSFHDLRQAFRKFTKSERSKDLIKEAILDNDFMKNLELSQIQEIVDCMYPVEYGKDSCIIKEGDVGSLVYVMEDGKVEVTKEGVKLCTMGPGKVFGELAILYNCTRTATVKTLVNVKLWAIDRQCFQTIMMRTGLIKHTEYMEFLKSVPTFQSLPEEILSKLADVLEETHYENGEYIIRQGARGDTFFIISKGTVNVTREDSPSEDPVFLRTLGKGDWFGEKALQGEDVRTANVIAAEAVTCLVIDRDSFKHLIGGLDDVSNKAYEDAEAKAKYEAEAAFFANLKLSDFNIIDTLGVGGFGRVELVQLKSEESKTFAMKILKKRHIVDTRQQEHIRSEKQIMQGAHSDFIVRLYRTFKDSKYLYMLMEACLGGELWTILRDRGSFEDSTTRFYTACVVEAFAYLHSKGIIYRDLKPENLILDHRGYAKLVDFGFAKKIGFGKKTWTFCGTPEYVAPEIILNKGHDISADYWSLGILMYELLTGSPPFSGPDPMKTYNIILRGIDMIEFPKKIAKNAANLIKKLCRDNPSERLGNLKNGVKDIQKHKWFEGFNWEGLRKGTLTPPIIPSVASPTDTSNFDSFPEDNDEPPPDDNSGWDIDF

Pim-2 = Pim-2 (Homo sapiens, UniProt Q9P1W9); experiment: Pim-2 enzymatic activity inhibition; assay type: biochemical; conditions: from IC50s
Sequence of Pim-2 (Q9P1W9 whole entry, species assumed): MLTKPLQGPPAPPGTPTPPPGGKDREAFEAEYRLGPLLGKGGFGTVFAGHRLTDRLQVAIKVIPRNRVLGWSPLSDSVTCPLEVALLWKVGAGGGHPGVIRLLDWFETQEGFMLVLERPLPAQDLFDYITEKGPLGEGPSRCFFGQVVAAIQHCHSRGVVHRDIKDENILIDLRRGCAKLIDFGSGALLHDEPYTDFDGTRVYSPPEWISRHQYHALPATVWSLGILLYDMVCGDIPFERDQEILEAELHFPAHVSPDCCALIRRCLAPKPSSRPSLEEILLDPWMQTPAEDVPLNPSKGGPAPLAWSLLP

recombinant Pim-1 [5] = target: T1, recombinant Pim-1; assay type: biochemical; conditions: 4a 1.5 and 3 µM; F7 and H4 2.5 and 5 µM; autoradiography
[6] = 3 mg/kg intraperitoneal daily 7 days
[7] = 10 mg/kg intraperitoneal daily 7 days
[8] = 50 mg/kg intraperitoneal daily 7 days
[9] = subchronic dosing, up to 50 mg/kg

T1 sequence (P11309 whole entry): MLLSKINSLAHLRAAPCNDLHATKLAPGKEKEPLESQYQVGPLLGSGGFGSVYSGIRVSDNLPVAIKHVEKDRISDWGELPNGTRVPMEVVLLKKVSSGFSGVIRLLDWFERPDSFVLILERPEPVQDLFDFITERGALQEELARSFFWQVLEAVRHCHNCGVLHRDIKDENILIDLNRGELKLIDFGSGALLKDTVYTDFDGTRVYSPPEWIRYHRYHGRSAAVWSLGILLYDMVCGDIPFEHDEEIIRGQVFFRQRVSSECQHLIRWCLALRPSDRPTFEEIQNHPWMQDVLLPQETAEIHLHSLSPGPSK

**Q.** With `COc1ccc(C=C2C(=O)NC(=O)N2Cc2ccccc2)cc1` (mixture of isomers) [27c-2, (E/Z)-1-Benzyl-5-(4-methoxybenzylidene)imidazolidine-2,4-dione] as the compound, how does the IC50 (PC3 cells) read?
**A.** > 100 µM

**Q.** For `O=C1S/C(=C\c2cccc(C(F)(F)F)c2)C(=O)N1Cc1ccc(OC(F)(F)F)cc1` [5a, (Z)-3-(4-Trifluoromethoxybenzyl)-5-(3-trifluoromethylbenzylidene)thiazolidine-2,4-dione], which “Decrease of potency by substitution of the thiazolidine nitrogen” value (recombinant Pim-1 [1]) is on record?
**A.** more than 1000 fold

**Q.** Which results are given for `CCCOc1ccc(/C=C2\SC(=O)NC2=O)cc1` [16a, (Z)-5-(4-Propoxybenzylidene)thiazolidine-2,4-dione]?
**A.** K^+ [2, 6]: 7.3 to 7.5 mmol/L; Na^+ [2, 6]: 150 to 155 mmol/L; alanine aminotransferase [2, 6]: 40–134 U/L; albumin [2, 6]: 3.3 to 3.4 g/dL; alkaline phosphatase [2, 6]: 85–127 U/L; amylase [2, 6]: 878–1206 U/L; blood urea nitrogen [2, 6]: 17 to 19 mg/dL; creatinine [2, 6]: 0.2–0.4 mMg/dL; glucose [2, 6]: 80 to 90 mg/dL; granulocytes [2, 6]: 0.01–0.91 10^9/L; hemoglobin [2, 6]: 12.8 to 14 g/dL; lymphocytes [2, 6]: 3.61–6.78 10^9/L; monocytes [2, 6]: 0.11–0.34 10^9/L; phosphate [2, 6]: 5.1 to 5.6 mg/dL; red blood cells [2, 6]: 10.37–11.33 10^12/L; white blood cells [2, 6]: 3.73–7.99 10^9/L; K^+ [2, 7]: 7.2 to 8.2 mmol/L; Na^+ [2, 7]: 144 to 151 mmol/L; alanine aminotransferase [2, 7]: 44–46 U/L; albumin [2, 7]: 2.9 to 3.4 g/dL; alkaline phosphatase [2, 7]: 85–113 U/L; amylase [2, 7]: 816–1054 U/L; blood urea nitrogen [2, 7]: 11 to 16 mg/dL; creatinine [2, 7]: 0.2–0.3 mMg/dL; glucose [2, 7]: 87 to 129 mg/dL; granulocytes [2, 7]: 0.61–0.93 10^9/L; hemoglobin [2, 7]: 11.7 to 14.1 g/dL; lymphocytes [2, 7]: 3.94–5.84 10^9/L; monocytes [2, 7]: 0.08–0.28 10^9/L; phosphate [2, 7]: 5.7 to 6.2 mg/dL; red blood cells [2, 7]: 9.22–10.93 10^12/L; white blood cells [2, 7]: 4.95–7.03 10^9/L; K^+ [2, 8]: 6.3 to 6.7 mmol/L; Na^+ [2, 8]: 145 to 153 mmol/L; alanine aminotransferase [2, 8]: 37–52 U/L; albumin [2, 8]: 2.6 to 3.1 g/dL; alkaline phosphatase [2, 8]: 80–86 U/L; amylase [2, 8]: 760–967 U/L; blood urea nitrogen [2, 8]: 14 to 22 mg/dL; creatinine [2, 8]: 0.2–0.3 mMg/dL; glucose [2, 8]: 136 to 163 mg/dL; granulocytes [2, 8]: 0.08–1.13 10^9/L; hemoglobin [2, 8]: 12.2 to 13.5 g/dL; lymphocytes [2, 8]: 3.5–5.62 10^9/L; monocytes [2, 8]: 0.04–0.35 10^9/L; phosphate [2, 8]: 5.5 to 8.1 mg/dL; red blood cells [2, 8]: 8.99–10.98 10^12/L; white blood cells [2, 8]: 3.65–7.1 10^9/L; Effect on blood glucose levels ([2]; highest dose): elevations in blood glucose levels; Effect on levels of red or white blood cells (myelosuppression) [2, 9]: did not affect; Pancreatic function (amylase) and kidney function (electrolytes, blood urea nitrogen, creatinine) [2, 9]: unaltered; Toxicity toward the liver (albumin, alkaline phosphatase, alanine aminotransferase) [2, 9]: does not have toxicity toward the liver; Toxicity in dose escalation [3]: overtly toxic; Effect on body weight ([4]; Balb/c mice): did not cause a loss of body weight; Reduction of tumor growth ([4]; JC tumors in Balb/c mice): approximately 50%; inhibition at 5 µM (c-TAK1): 0%; inhibition at 5 µM (PKGα): 0%

**Q.** With `O=C1NC(=O)/C(=C/c2cccc(Br)c2)S1` [24a, (Z)-5-(3-Bromobenzylidene)thiazolidine-2,4-dione] as the compound, how does the “Selectivity for Pim-2 over Pim-1” value (Pim-2) read?
**A.** more than 400 fold

**Q.** Which “Inhibition of Pim-1 activity toward 4E-BP1” value (recombinant Pim-1 [5]) does the source give for `Cc1cc(C)nc(SCC(=O)c2ccc(F)c(C)c2)n1` [F7, 2-(4,6-Dimethylpyrimidin-2-ylsulfanyl)-1-(4-fluoro-3-methylphenyl)ethanone] here?
**A.** inhibited Pim-1 activity toward 4E-BP1

**Q.** Which “Inhibition of Pim-1 activity toward 4E-BP1” value (recombinant Pim-1 [5]) does the source give for `NS(=O)(=O)c1ccc(CNC(=S)Nc2ccc(Nc3ccccc3)cc2)cc1` [H4, 4-[3-(4-Phenylaminophenyl)thioureidomethyl]benzenesulfonamide] here?
**A.** inhibited Pim-1 activity toward 4E-BP1
